Source: US9827177B2, “Antiperspirant products with protein and antiperspirant salts” (Colgate-Palmolive Company, priority 2012, dated 2017)

How the values were obtained:
[1] = Hydrolysis reaction: turbidity and pH of diluted ZLC solutions before and after aging; type: physicochemical; conditions: for pH after aging / turbidity after aging (NTU): aged 37° C. over 5 hours; for initial turbidity (NTU): before aging
Protocol: Hydrolysis reaction: A 185 mg/ml ZLC solution is prepared and diluted several-fold and aged in a 37° C. oven over 5 hours for turbidity studies. […] Turbidity of the solutions is measured using a nephelometer, results being given in nephelometric turbidity units (NTU).
The precipitates formed in the 8×, 16× and 32× diluted solutions are collected by centrifugation and identified as crystalline ZnO by PXRD. From the supernatant, a single crystal is grown and shown by X-ray diffraction to be Lysine Monohydrochloride Dihydrate (Lysine.HCl.2H2O).

[2] = target: T1, Bovine Serum Albumin (BSA) (Bos taurus, UniProt P02769); assay: Flocculation of ZLC in the presence of protein (turbidity, pH); type: physicochemical; conditions: 5 hours at 37° C.
T1 construct: is a serum albumin protein derived from the blood of cattle; from tissue; host or cells: blood of cattle
Protocol: Turbidity and pH of solutions are measured 5 hours after the mixtures were placed in a 37° C. oven, and the results are shown in Table 3.

[3] = Precipitation of ZLC-BSA mixture solutions at adjusted pH; type: physicochemical; conditions: pure solution, pH 3-11
Excerpt: The pH of the solutions is adjusted to 3, 4, 5, 6, 7, 8, 9, 10 and 11 to observe the formation of precipitation. Precipitate is formed in all solutions at pH ranging from 3 to 5. […] All solutions appear clear at pH 8. A small amount of precipitation is also found at pH 9 and 10. At pH 11, precipitate is formed in all solutions. […] The formation of precipitation in acid pH requires both ZLC and BSA to be present in solution.

[4] = system: bacterial lawn on TSA plates; assay: Zone of inhibition test; type: cell-based; conditions: 20 μl on filter paper discs, 20 hours at 37° C.; compared with zinc oxide and lysine hydrochloride
Protocol: A zone of inhibition test is conducted on several materials: zinc oxide, lysine hydrochloride, and ZLC. The method involves making a lawn of freshly prepared bacterial culture on TSA (trypticase soy agar) plates. Sterile filter paper discs are seeded with 20 μl of test sample (supernatant or mixture). Sample-coated filter paper discs are air dried and applied onto the bacterial lawn on TSA plates. Plates are incubated for 20 hours at 37° C.

[5] = sample 1: DI water, 0% BSA, ZLC about 0.98% w/w or 15 mg/ml
[6] = sample 2: 1% BSA, pH 7.2, ZLC about 0.96% w/w or 15 mg/ml
[7] = sample 3: 1% BSA, pH adjusted to 5.1, ZLC about 0.96% w/w or 15 mg/ml

T1 sequence (P02769 25-607): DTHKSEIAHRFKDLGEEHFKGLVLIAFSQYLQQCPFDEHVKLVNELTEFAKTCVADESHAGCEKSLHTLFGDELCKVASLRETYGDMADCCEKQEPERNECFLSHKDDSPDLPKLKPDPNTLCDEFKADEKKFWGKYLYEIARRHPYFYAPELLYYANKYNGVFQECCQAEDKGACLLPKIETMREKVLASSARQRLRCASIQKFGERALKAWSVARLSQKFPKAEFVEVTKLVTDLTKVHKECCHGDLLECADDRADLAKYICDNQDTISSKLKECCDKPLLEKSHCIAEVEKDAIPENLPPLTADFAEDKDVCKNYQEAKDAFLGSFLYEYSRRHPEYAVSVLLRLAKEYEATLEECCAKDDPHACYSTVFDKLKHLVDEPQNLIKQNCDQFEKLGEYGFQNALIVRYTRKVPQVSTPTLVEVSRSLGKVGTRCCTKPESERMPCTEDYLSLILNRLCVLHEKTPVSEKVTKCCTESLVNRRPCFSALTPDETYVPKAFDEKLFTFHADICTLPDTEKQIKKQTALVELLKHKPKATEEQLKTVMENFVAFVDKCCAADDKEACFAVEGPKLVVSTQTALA

NCCCCC(N)C(=O)O.NCCCCC(N)C(=O)O.O.O.[Cl-].[Cl-].[Zn+2] (stereo not drawn) [ZLC, zinc-lysine-HCl complex]
pH after aging ([1]; 5.78 mg/ml ZLC solution): 8 | turbidity after aging (NTU) ([1]; 5.78 mg/ml ZLC solution): >1000 NTU | pH after aging ([1]; 11.56 mg/ml ZLC solution): 7.8 | turbidity after aging (NTU) ([1]; 11.56 mg/ml ZLC solution): >1000 NTU | pH after aging ([1]; 23.125 mg/ml ZLC solution): 7.7 | initial turbidity (NTU) ([1]; 23.125 mg/ml ZLC solution): 0.7 NTU | pH after aging ([1]; 46.25 mg/ml ZLC solution): 7.4 | turbidity after aging (NTU) ([1]; 46.25 mg/ml ZLC solution): 2.8 NTU | initial turbidity (NTU) ([1]; 46.25 mg/ml ZLC solution): 1.5 NTU | pH after aging ([1]; 92.5 mg/ml ZLC solution): 7 | turbidity after aging (NTU) ([1]; 92.5 mg/ml ZLC solution): 2.6 NTU | initial turbidity (NTU) ([1]; 92.5 mg/ml ZLC solution): 2.8 NTU | observation on dilution of the solution ([1]; 185 mg/ml ZLC solution diluted several-fold): A white precipitate forms as the solution is diluted | pH after aging ([1]; 185 mg/ml ZLC solution): 6.8 | turbidity after aging (NTU) ([1]; 185 mg/ml ZLC solution): 4.1 NTU | initial turbidity (NTU) ([1]; 185 mg/ml ZLC solution): 4.7 NTU | stability of the complex upon dilution ([1]; 8×, 16× and 32× diluted solutions, precipitate identified as ZnO by PXRD): disassociates upon dilution, with consequent precipitation of zinc oxide | observation [2, 5]: becomes slightly cloudy | pH [2, 5]: 8 | Turbidity (NTU) [2, 6]: >1000 NTU | observation [2, 6]: a lot white precipitate | pH [2, 6]: 8.2 | Turbidity (NTU) [2, 7]: >1000 NTU | observation [2, 7]: a lot white precipitate | pH [2, 7]: 8 | formation of precipitation [3]: No precipitation | antibacterial activity (zone of inhibition) [4]: better antibacterial activity than zinc oxide alone or lysine hydrochloride alone
